Data from patent US20100291225A1, “Stabilized Sustained Release Composition of Bupropion Hydrochloride and Process For Preparing the Same” (priority 2008, published 2010).

Conditions: in vivo, po, 150 mg
Protocol: This example describes an in-vivo study, which measured plasma concentrations of bupropion achieved after oral administration of reference Wellbutrin® SR tablet and test bupropion hydrochloride sustained release tablets of example 1. The in-vivo study was carried out on 12+2 standby healthy adult subjects under fasting conditions. Plasma bupropion was determined over a 120 hour period, after single oral administration of the respective formulations. Each subject was administered each of the two formulations in cross over design separated by a washout period of 14 days between administrations of the two formulations. Plasma levels were measured at predetermined times utilizing a validated assay method employing LC-MS/MS instrumentation. Plasma pharmacokinetic parameters were evaluated using commercially available software WinNonlin version 5.0.1 or higher. The statistical analysis was performed using SAS® package (SAS® Institute Inc., USA version 9.1 or higher). Values derived at each time point and to determine the area under the curve (AUC) and maximum concentration (Cmax) afforded by Wellbutrin®SR and the test formulation.

- AUC0-t: 894.88 ngh/ml
- AUC0-α: 951.251 ngh/ml
- Cmax: 111.178 ng/mL
SMILES: CC(NC(C)(C)C)C(=O)c1cccc(Cl)c1 (stereo not drawn) [Wellbutrin ®SR]
